Reference: US20250098679A1, “HERBICIDAL PYRIDONE DERIVATIVES” (SYNGENTA CROP PROTECTION AG, priority 2021, published 2025)

What was measured:
Assay type in all cases: in vivo
Details in all cases: evaluated after 13 days
[1] = tested on: Amaranthus retoflexus (AMARE); test: Post-emergence Test, Amaranthus retoflexus (AMARE); set-up: key to percentage damage caused to the plant, AMARE (five-point scale): 5=81-100%, 4=61-80%, 3=41-60%, 2=21-40%, 1=0-20% damage
How it was run: (§1)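 Application was a spray of acetone/water (50:50) with 0.5% Tween 20 onto pots of test species sown in standard soil. Unless otherwise stated, the rate was 1000 g/ha. After 13 days under glasshouse conditions (24/16 °C, 65% humidity), injury was scored from 1 (0-20%) to 5 (81-100%).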

[2] = tested on: Ipomoea hederacea (IPOHE); test: Pre-emergence Test, Ipomoea hederacea (IPOHE)
[3] = tested on: Amaranthus retoflexus (AMARE); test: Pre-emergence Test, Amaranthus retoflexus (AMARE)
[4] = tested on: Echinochloa crus-galli (ECHCG); test: Pre-emergence Test, Echinochloa crus-galli (ECHCG)
Setaria faberi (SETFA) [5] = test: Pre-emergence Test, Setaria faberi (SETFA)
[6] = tested on: Amaranthus palmeri (AMAPA); test: Post-emergence Test, Amaranthus palmeri (AMAPA); set-up: key: 5=81-100%, 4=61-80%, 3=41-60%, 2=21-40%, 1=0-20% damage
How it was run: as §1

Setaria faberi (SETFA) [7] = test: Post-emergence Test, Setaria faberi (SETFA); set-up: key to percentage damage caused to the plant, SETFA (five-point scale): 5=81-100%, 4=61-80%, 3=41-60%, 2=21-40%, 1=0-20% damage
How it was run: as §1

Zea mays (ZEAMX) [8] = test: Pre-emergence Test, Zea mays (ZEAMX)
Zea mays (ZEAMX) [9] = test: Post-emergence Test, Zea mays (ZEAMX); set-up: key to percentage damage caused to the plant, ZEAMX (five-point scale): 5=81-100%, 4=61-80%, 3=41-60%, 2=21-40%, 1=0-20% damage
How it was run: as §1

[10] = tested on: Amaranthus palmeri (AMAPA); test: Pre-emergence Test, Amaranthus palmeri (AMAPA)
[11] = tested on: Ipomoea hederacea (IPOHE); test: Post-emergence Test, Ipomoea hederacea (IPOHE); set-up: key to percentage damage caused to the plant, IPOHE (five-point scale): 5=81-100%, 4=61-80%, 3=41-60%, 2=21-40%, 1=0-20% damage
How it was run: as §1

[12] = tested on: Echinochloa crus-galli (ECHCG); test: Post-emergence Test, Echinochloa crus-galli (ECHCG); set-up: key to percentage damage caused to the plant, ECHCG (five-point scale): 5=81-100%, 4=61-80%, 3=41-60%, 2=21-40%, 1=0-20% damage
How it was run: as §1

| Compound | percentage damage caused to the plant, AMARE (five-point scale) ([1]; 1000 g/ha) | Pre-emergence Test IPOHE, percentage damage caused to the plant (five-point scale) ([2]; 250 g/Ha (*)) | Pre-emergence Test IPOHE, percentage damage caused to the plant (five-point scale) ([2]; 1000 g/ha) | Pre-emergence Test AMARE, percentage damage caused to the plant (five-point scale) ([3]; 250 g/Ha (*)) | Pre-emergence Test AMARE, percentage damage caused to the plant (five-point scale) ([3]; 1000 g/ha) | Pre-emergence Test ECHCG, percentage damage caused to the plant (five-point scale) ([4]; 1000 g/ha) | Pre-emergence Test SETFA, percentage damage caused to the plant (five-point scale) (Setaria faberi (SETFA) [5]; 1000 g/ha) | percentage damage caused to the plant, AMAPA (five-point scale) ([6]; 1000 g/ha) | percentage damage caused to the plant, SETFA (five-point scale) (Setaria faberi (SETFA) [7]; 1000 g/ha) | Pre-emergence Test ZEAMX, percentage damage caused to the plant (five-point scale) (Zea mays (ZEAMX) [8]; 1000 g/ha) | percentage damage caused to the plant, ZEAMX (five-point scale) (Zea mays (ZEAMX) [9]; 1000 g/ha) | Pre-emergence Test AMAPA, percentage damage caused to the plant (five-point scale) ([10]; 1000 g/ha) | percentage damage caused to the plant, IPOHE (five-point scale) ([11]; 1000 g/ha) | percentage damage caused to the plant, ECHCG (five-point scale) ([12]; 1000 g/ha) | percentage damage caused to the plant, AMARE (five-point scale) ([1]; 250 g/Ha) | percentage damage caused to the plant, AMAPA (five-point scale) ([6]; 250 g/Ha) | percentage damage caused to the plant, SETFA (five-point scale) (Setaria faberi (SETFA) [7]; 250 g/Ha) | percentage damage caused to the plant, ZEAMX (five-point scale) (Zea mays (ZEAMX) [9]; 250 g/Ha) | percentage damage caused to the plant, IPOHE (five-point scale) ([11]; 250 g/Ha) | percentage damage caused to the plant, ECHCG (five-point scale) ([12]; 250 g/Ha) | also measured |
| --- | --- | --- | --- | --- | --- | --- | --- | --- | --- | --- | --- | --- | --- | --- | --- | --- | --- | --- | --- | --- | --- |
| CCn1c(Cn2cnc(Cl)n2)cc(=O)c(C(=O)O)c1-c1ccc(Cl)c(Cl)c1 [Compound 5, 6-[(3-chloro-1,2,4-triazol-1-yl)methyl]-2-(3,4-dichlorophenyl)-1-ethyl-4-oxo-pyridine-3-carboxylic acid] | 1 (1=0-20%) | 0 | 0 | 0 | 0 | 4 (4=61-80%) | 3 (3=41-60%) | 1 (1=0-20%) | 4 (4=61-80%) | 0 | 2 (2=21-40%) | 2 (2=21-40%) | 1 (1=0-20%) | 1 (1=0-20%) |  |  |  |  |  |  | Pre-emergence Test ECHCG, percentage damage caused to the plant (five-point scale) ([4]; 250 g/Ha (*)): 3 (3=41-60%); Pre-emergence Test SETFA, percentage damage caused to the plant (five-point scale) (Setaria faberi (SETFA) [5]; 250 g/Ha (*)): 2 (2=21-40%); Pre-emergence Test ZEAMX, percentage damage caused to the plant (five-point scale) (Zea mays (ZEAMX) [8]; 250 g/Ha (*)): 0; Pre-emergence Test AMAPA, percentage damage caused to the plant (five-point scale) ([10]; 250 g/Ha (*)): 0 |
| CCn1c(Cn2ccc(C(F)(F)F)n2)c(C)c(=O)c(C(=O)O)c1-c1ccc(Cl)c(Cl)c1 [Compound 20, 2-(3,4-dichlorophenyl)-1-ethyl-5-methyl-4-oxo-6-[[3-(trifluoromethyl)pyrazol-1-yl]methyl]pyridine-3-carboxylic acid] | 1 (1=0-20%) |  | 0 |  | 0 | 4 (4=61-80%) | 2 (2=21-40%) | 0 | 4 (4=61-80%) | 1 (1=0-20%) | 1 (1=0-20%) | 0 | 0 | 3 (3=41-60%) |  |  |  |  |  |  |  |
| CCn1c(Cn2ncc3cc(F)ccc32)cc(=O)c(C(=O)O)c1-c1ccc(Cl)c(Cl)c1 [Compound 102, 2-(3,4-dichlorophenyl)-1-ethyl-6-[(5-fluoroindazol-1-yl)methyl]-4-oxo-pyridine-3-carboxylic acid] | 4 (4=61-80%) |  | 3 (3=41-60%) |  | 1 (1=0-20%) | 1 (1=0-20%) | 1 (1=0-20%) | 4 (4=61-80%) | 2 (2=21-40%) | 0 | 0 | 1 (1=0-20%) | 3 (3=41-60%) | 3 (3=41-60%) | 1 (1=0-20%) | 2 (2=21-40%) | 1 (1=0-20%) | 1 (1=0-20%) | 1 (1=0-20%) | 3 (3=41-60%) |  |
| CCn1c(Cn2nc(C)cc2OC(F)F)cc(=O)c(C(=O)O)c1-c1ccc(Cl)c(Cl)c1 [Compound 150, 2-(3,4-dichlorophenyl)-6-[[5-(difluoromethoxy)-3-methyl-pyrazol-1-yl]methyl]-1-ethyl-4-oxo-pyridine-3-carboxylic acid] | 2 (2=21-40%) | 1 (1=0-20%) | 4 (4=61-80%) | 0 | 1 (1=0-20%) | 5 (5=81-100%) | 5 (5=81-100%) | 1 (1=0-20%) | 4 (4=61-80%) | 3 (3=41-60%) | 3 (3=41-60%) | 2 (2=21-40%) | 2 (2=21-40%) | 4 (4=61-80%) | 0 | 0 | 4 (4=61-80%) | 1 (1=0-20%) | 4 (4=61-80%) | 2 (2=21-40%) | Pre-emergence Test ECHCG, percentage damage caused to the plant (five-point scale) ([4]; 250 g/Ha (*)): 4 (4=61-80%); Pre-emergence Test SETFA, percentage damage caused to the plant (five-point scale) (Setaria faberi (SETFA) [5]; 250 g/Ha (*)): 5 (5=81-100%); Pre-emergence Test ZEAMX, percentage damage caused to the plant (five-point scale) (Zea mays (ZEAMX) [8]; 250 g/Ha (*)): 1 (1=0-20%); Pre-emergence Test AMAPA, percentage damage caused to the plant (five-point scale) ([10]; 250 g/Ha (*)): 1 (1=0-20%) |
| COCCn1c(Cn2ccc(C(F)(F)F)n2)cc(=O)c(C(=O)O)c1-c1ccc(Cl)c(Cl)c1 [Compound 170, 2-(3,4-dichlorophenyl)-1-(2-methoxyethyl)-4-oxo-6-[[3-(trifluoromethyl)pyrazol-1-yl]methyl]pyridine-3-carboxylic acid] | 1 (1=0-20%) |  | 2 (2=21-40%) |  | 0 | 3 (3=41-60%) | 4 (4=61-80%) | 1 (1=0-20%) | 4 (4=61-80%) | 0 | 1 (1=0-20%) | 0 | 3 (3=41-60%) | 4 (4=61-80%) | 0 | 0 | 3 (3=41-60%) | 0 | 3 (3=41-60%) | 3 (3=41-60%) |  |
